Measurements: patent US20240199642A1, “METHOD FOR OBTAINING RIFAPENTINE WITH A NEW CRYSTALLINE FORM” (INTERQUIM S.A. DE C.V., priority 2021, published 2024)

Tests used:
[1] = stability under normal storage conditions and normal formulation manipulations; format: physicochemical
[2] = hygroscopicity under normal handling and storage conditions; format: physicochemical

CO[C@H]1/C=C/O[C@@]2(C)Oc3c(C)c(O)c4c(O)c(c(/C=N/N5CCN(C6CCCC6)CC5)c(O)c4c3C2=O)NC(=O)/C(C)=C\C=C\[C@H](C)[C@H](O)[C@@H](C)[C@@H](O)[C@@H](C)[C@H](OC(C)=O)[C@@H]1C [crystalline form of rifapentine, Rifapentine]
stability [1]: stable
hygroscopicity ([2]; normal handling and storage conditions): non-hydroscopic
hygroscopicity ([2]; normal storage conditions and normal formulation manipulations): non-hygroscopic
